Experimental data from patent publication US10844013B2, “Phenyl amino piperidine mTORC inhibitors and uses thereof” (Navitor Pharmaceuticals, Inc., priority 2016, dated 2020).
Where a name gives a salt, the structure may show the parent alone.

Tests used:
[1] = system: pS6K1 (p-p70 S6 Kinase (Thr389)) in MCF-7 cells; test: AlphaLISA Ultra pS6K1 assay; format: cell-based; conditions: Homo sapiens, MCF7, 2 h, 2 hours compound incubation
How it was run: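 MCF-7 cells seeded 20–24 h, medium refreshed 2 h, then treated 2 h with compound (0.5% DMSO final). Lysates probed for Thr389-phosphorylated p70 S6K by AlphaLISA Ultra, 2 h acceptor then 2 h donor bead incubation, read on a multimode reader.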

[2] = system: pAKT (p-Akt 1/2/3 (Ser473)) in MCF-7 cells; test: AlphaLISA Ultra pAKT assay; format: cell-based; conditions: Homo sapiens, MCF7, 2 hours compound incubation
How it was run: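 AlphaLISA read-out (2 h acceptor-bead, then 2 h donor-bead incubation) on thawed lysates of MCF-7 cells exposed to compounds for 2 h in 0.5% DMSO. Cells had been plated 20-24 h and given fresh medium 2 h before dosing.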

| SMILES | IC50 [1] [nM] | IC50 [2] [nM] |
| --- | --- | --- |
| Cc1cc(C)c(C(=O)N2CCN(c3ccccc3S(N)(=O)=O)CC2)cc1NC1CCN(c2ccccc2C)CC1 [I-108, 2-(4-(2,4-Dimethyl-5-(1-o-tolylpiperidin-4-ylamino)benzoyl)piperazin-1-yl)benzenesulfonamide] | 1000 to 3000 | > 10000 |
| N#Cc1ccccc1N1CCC(Nc2c(F)ccc(C(=O)N3CCN(c4ccccc4S(N)(=O)=O)CC3)c2F)CC1 [I-109, 2-(4-(3-(1-(2-cyanophenyl)piperidin-4-ylamino)-2,4-difluorobenzoyl)piperazin-1-yl)benzenesulfonamide] | 3000 to 5000 | > 10000 |
| Cc1cc(C)c(C(=O)N2CCN(c3ccccc3[S@](C)(=N)=O)CC2)nc1NC1CCN(c2ccccc2C#N)CC1 [I-110, (R)-2-(4-(3,5-Dimethyl-6-(4-(2-(S-methylsulfonimidoyl)phenyl)piperazine-1-carbonyl)pyridin-2-ylamino)piperidin-1-yl)benzonitrile] | 10 to 1000 | > 10000 |
| Cc1cc(C)c(C(=O)N2CCN(c3ccccc3C)[C@@H](CO)C2)cc1NC1CCN(c2ccccc2C#N)CC1 [I-112, (R)-2-(4-(5-(3-(Hydroxymethyl)-4-o-tolylpiperazine-1-carbonyl)-2,4-dimethylphenylamino)piperidin-1-yl)benzonitrile] | 1000 to 3000 | > 10000 |
| Cc1cc(F)c(C(=O)N2CCN(c3ccccc3S(N)(=O)=O)CC2)cc1NC1CCN(c2ccccc2C#N)CC1 [I-113, 2-(4-(5-(1-(2-Cyanophenyl)piperidin-4-ylamino)-2-fluoro-4-methylbenzoyl)piperazin-1-yl)benzenesulfonamide] | 3000 to 5000 | > 10000 |
| Cc1cc(C)c(C(=O)N2CCN(C(C)C)[C@@H](CO)C2)cc1NC1CCN(c2ccccc2C#N)CC1 [I-114, (R)-2-(4-(5-(3-(Hydroxymethyl)-4-isopropylpiperazine-1-carbonyl)-2,4-dimethylphenylamino)piperidin-1-yl)benzonitrile] | > 10000 | > 10000 |
| Cc1cc(C)c(C(=O)N2CCN(c3ncccc3F)[C@@H](CO)C2)cc1NC1CCN(c2ccccc2C#N)CC1 [I-115, (R)-2-(4-(5-(4-(3-Fluoropyridin-2-yl)-3-(hydroxymethyl)piperazine-1-carbonyl)-2,4-dimethylphenylamino)piperidin-1-yl)benzonitrile] | 1000 to 3000 | > 10000 |
| Cc1cc(C)c(C(=O)N2CCN(c3ccc(F)cn3)[C@@H](CO)C2)cc1NC1CCN(c2ccccc2C#N)CC1 [I-116, (R)-2-(4-(5-(4-(5-Fluoropyridin-2-yl)-3-(hydroxymethyl)piperazine-1-carbonyl)-2,4-dimethylphenylamino)piperidin-1-yl)benzonitrile] | 1000 to 3000 | > 10000 |
| Cc1cc(C)c(C(=O)N2CCN(c3ccc(F)cn3)[C@H](CO)C2)cc1NC1CCN(c2ccccc2C#N)CC1 [I-117, (S)-2-(4-(5-(4-(5-fluoropyridin-2-yl)-3-(hydroxymethyl)piperazine-1-carbonyl)-2,4-dimethylphenylamino)piperidin-1-yl)benzonitrile] | 10 to 1000 | > 10000 |
| Cc1cc(C)c(C(=O)N2CCN(c3ccccn3)C(C)(C)C2)cc1NC1CCN(c2ccccc2C#N)CC1 [I-118] | 1000 to 3000 | > 10000 |
| Cc1cc(C)c(C(=O)N2CCN(c3ccccc3)C(C)(C)C2)cc1NC1CCN(c2ccccc2C#N)CC1 [I-119, 2-(4-(5-(3,3-Dimethyl-4-phenylpiperazine-1-carbonyl)-2,4-dimethylphenylamino)piperidin-1-yl)benzonitrile] | > 10000 | > 10000 |
| Cc1ccc(C(=O)N2CCN(c3ncccc3S(N)(=O)=O)CC2)c(C)c1NC1CCN(c2ccccc2C#N)CC1 [I-120, 2-(4-(3-(1-(2-cyanophenyl)piperidin-4-ylamino)-2,4-dimethylbenzoyl)piperazin-1-yl)pyridine-3-sulfonamide] | 10 to 1000 | > 10000 |
| Cc1cc(C)c(C(=O)N2CCN(c3ncccc3S(N)(=O)=O)[C@H](C)C2)cc1NC1CCN(c2ccccc2C#N)CC1 [I-122, (R)-2-(4-(5-(1-(2-Cyanophenyl)piperidin-4-ylamino)-2,4-dimethylbenzoyl)-2-methylpiperazin-1-yl)pyridine-3-sulfonamide] | 10 to 1000 | > 10000 |
| CNC(=O)c1cccnc1N1CCN(C(=O)c2cc(NC3CCN(c4ccccc4C#N)CC3)c(C)cc2C)C[C@H]1C [I-123, (R)-2-(4-(5-(1-(2-Cyanophenyl)piperidin-4-ylamino)-2,4-dimethylbenzoyl)-2-methylpiperazin-1-yl)-N-methylnicotinamide] | 1000 to 3000 | > 10000 |
| Cc1ccc(C(=O)N2CCN(c3ccccc3S(N)(=O)=O)CC2)c(C)c1NC1CCN(c2ccccc2C#N)CC1 [I-124, 2-[4-[3-[[1-(2-cyanophenyl)-4-piperidyl]amino]-2,4-dimethyl-benzoyl]piperazin-1-yl]benzenesulfonamide] | 10 to 1000 | > 10000 |
| N#Cc1ccccc1N1CCC(Nc2cc(C(=O)N3CCN(c4ccccc4S(N)(=O)=O)CC3)c(Cl)cc2Cl)CC1 [I-125, 2-(4-(2,4-dichloro-5-(1-(2-cyanophenyl)piperidin-4-ylamino)benzoyl)piperazin-1-yl)benzenesulfonamide] | > 10000 | > 10000 |
| COc1cc(C)c(C(=O)N2CCN(c3ccccc3S(N)(=O)=O)CC2)cc1NC1CCN(c2ccccc2C#N)CC1 [I-127, 2-(4-(5-(1-(2-Cyanophenyl)piperidin-4-ylamino)-4-methoxy-2-methylbenzoyl)piperazin-1-yl)benzenesulfonamide] | 3000 to 5000 | > 10000 |

Next, values leading:

| IC50 [1] [nM] | IC50 [2] [nM] | SMILES |
| --- | --- | --- |
| 1000 to 3000 | > 10000 | Cc1cccc(N2CCC(Nc3cc(C(=O)N4CCN(c5ccccc5S(N)(=O)=O)CC4)c(C)cc3C)CC2)c1 [I-129, 2-(4-(2,4-Dimethyl-5-(1-m-tolylpiperidin-4-ylamino)benzoyl)piperazin-1-yl)benzenesulfonamide] |
| > 10000 | > 10000 | Cc1cc(C)c(C(=O)N2CCN(c3ccccc3S(N)(=O)=O)CC2)cc1NC1CCN(c2ccccc2C#N)C1 (stereo not shown) [I-131, 2-(4-(5-(1-(2-cyanophenyl)pyrrolidin-3-ylamino)-2,4-dimethylbenzoyl)piperazin-1-yl)benzenesulfonamide] |
| 1000 to 3000 | > 10000 | Cc1cc(C)c(C(=O)N2CCN(c3ccccc3S(N)(=O)=O)CC2)cc1NC1C2CN(c3ccccc3C#N)CC21 (stereo not shown) [I-132, 2-(4-(5-(3-(2-Cyanophenyl)-3-azabicyclo[3.1.0]hexan-6-ylamino)-2,4-dimethylbenzoyl)piperazin-1-yl)benzenesulfonamide] |
| 10 to 1000 | > 10000 | Cc1cc(C)c(C(=O)N2CCN(c3ccccc3)C(CN)C2)c(C)c1NC1CCN(c2ccccc2C#N)CC1 (stereo not shown) [I-135, 2-[4-({3-[3-(Aminomethyl)-4-phenylpiperazine-1-carbonyl]-2,4,6-trimethylphenyl}amino)piperidin-1-yl]benzonitrile; bis(formic acid) salt] |
| 10 to 1000 | > 10000 | Cc1cc(C)c(C(=O)N2CC(=O)N(c3ccc(F)c(F)c3)[C@H](CO)C2)c(C)c1NC1CCN(c2ccccc2C#N)CC1 [I-136, 2-[4-({3-[(3S)-4-(3,4-difluoro-phenyl)-3-(hydroxy-methyl)-5-oxopiperazine-1-carbonyl]-2,4,6-trimethyl-phenyl}amino)piperidin-1-yl]benzonitrile] |
| 10 to 1000 | > 10000 | Cc1cc(C)c(C(=O)N2CCN(c3ccccc3)[C@H](CN)C2)c(C)c1NC1CCN(c2ccccc2C#N)CC1 [I-137, 2-[4-({3-[(3R)-3-(Aminomethyl)-4-phenylpiperazine-1-carbonyl]-2,4,6-trimethylphenyl}amino)piperidin-1-yl]benzonitrile] |
| 10 to 1000 | > 10000 | Cc1cc(C)c(C(=O)N2CCN(c3ccccc3)C(C(N)=O)C2)c(C)c1NC1CCN(c2ccccc2C#N)CC1 (stereo not shown) [I-139, 4-(3-{[1-(2-cyanophenyl)piperidin-4-yl]amino}-2,4,6-trimethyl-benzoyl)-1-phenyl-piperazine-2-carboxamide] |
| 10 to 1000 | > 10000 | Cc1cc(C)c(C(=O)N2CCN(c3cccnn3)[C@H](CO)C2)c(C)c1NC1CCN(c2ccccc2C#N)CC1 [I-140, 2-[4-({3-[(3S)-3-(hydroxy-methyl)-4-(pyridazin-3-yl)piperazine-1-carbonyl]-2,4,6-trimethyl-phenyl}amino)piperidin-1-yl] benzonitrile] |
| 10 to 1000 | > 10000 | Cc1cc(C)c(C(=O)N2CCN(c3ccccc3)C(C(N)=O)C2)c(C)c1NC1CCN(c2ccc(F)cc2C#N)CC1 (stereo not shown) [I-142, 4-(3-{[1-(2-cyano-4-fluorophenyl)piperidin-4-yl]amino}-2,4,6-trimethyl-benzoyl)-1-phenyl-piperazine-2-carboxamide] |
| 10 to 1000 | > 10000 | Cc1cc(C)c(C(=O)N2CCN(c3ccccn3)C(=O)C2)c(C)c1NC1CCN(c2ccc(F)cc2C#N)CC1 [I-143, 5-fluoro-2-[4-({2,4,6-trimethyl-3-[3-oxo-4-(pyridin-2-yl)piperazine-1-carbonyl]phenyl}amino)piperidin-1-yl] benzonitrile] |
| 10 to 1000 | > 10000 | Cc1cc(C)c(C(=O)N2CCN(c3ccc(F)cc3)C(C(N)=O)C2)c(C)c1NC1CCN(c2ccc(F)cc2C#N)CC1 (stereo not shown) [I-144, 4-(3-{[1-(2-cyano-4-fluorophenyl)piperidin-4-yl]amino}-2,4,6-trimethyl-benzoyl)-1-(4-fluorophenyl) piperazine-2-carboxamide] |
| 10 to 1000 | > 10000 | Cc1cc(C)c(C(=O)N2CCN(c3ccccc3)[C@H](CO)C2)c(C)c1NC1CCN(c2ccc(F)cn2)CC1 [I-145, [(2S)-4-(3-{[1-(5-fluoropyridin-2-yl)piperidin-4-yl]amino}-2,4,6-trimethyl-benzoyl)-1-phenyl-piperazin-2-yl]MeOH] |
